Source: patent publication US20190136321A1, “USE OF TRANSLATIONAL PROFILING TO IDENTIFY TARGET MOLECULES FOR THERAPEUTIC TREATMENT” (The Regents of The University of California, priority 2013, published 2019)

System: Pten^L/L mice
Assay: Pharmacological treatment of Pten^L/L mice (preclinical trial, prostate cancer)
Type: in vivo, mouse
Details: Pten^L/L mice, RAD001 10 mg/kg daily
Description: Pten^loxp/loxp and Pb-cre mice where obtained from Jackson Laboratories and Mouse Models of Human Cancers Consortium (MMHCC), respectively, and maintained in the C57BL/6 background. Mice were maintained under specific pathogen-free conditions, and experiments were performed in compliance with institutional guidelines as approved by the Institutional Animal Care and Use Committee of UCSF.
Weight measurements were taken every 3 days to monitor for toxicity. For the 28-day study, mice were imaged via […] at day 0 and day 28 in a 14-T GE MR scanner (GE Healthcare).
Whole mouse prostates were removed from wild-type and Pten^L/L mice, microdissected, and frozen in liquid nitrogen. Frozen tissues were subsequently manually disassociated using a biopulverizer (Biospec) and additionally processed for protein and mRNA analysis as described above.
Prostates and lymph nodes were dissected from mice within 2 hr of the indicated treatment and fixed in 10% formalin overnight at 4° C. Tissues were subsequently dehydrated in ethanol (Sigma) at room temperature, mounted into paraffin blocks, and sectioned at […] Specimens were de-paraffinized and rehydrated using CitriSolv (Fisher) followed by serial ethanol washes. […] Sections were washed in distilled water followed by TBS washes. The sections were then incubated in 5% goat serum, 1% BSA in TBS for 1 hr at room temperature. Various primary antibodies were used, including those specific for keratin 5 (Covance), cytokeratin 8 (Abcam and Covance), YB1 (Abcam), vimentin (Abcam), MTA1 (Cell signaling), CD44 (BD Pharmingen), and the androgen receptor (Epitomics), which were diluted 1:50-1:500 in blocking solution and incubated on sections overnight at 4° C. Specimens were then washed in TBS and incubated with the appropriate Alexa 488 and 594 labeled secondary (Invitrogen) at 1:500 for 2 hr at room temperature, with the exception of YB1 which was incubated with biotinylated anti-rabbit secondary (Vector) followed by incubation with Alexa 594 labeled Streptavidin (Invitrogen). A final set of washes in TBS was completed at room temperature followed by mounting with DAPI Hardset Mounting Medium (Vector Lab). A Zeiss Spinning Disc confocal (Zeiss, CSU-X1) was used to image the sections at 40×-100×. Individual prostate cells were quantified for mean fluorescence intensity (m.f.i.) using the Axiovision (Zeiss, Release 4.8) densitometric tool.
Mouse lymph nodes were processed as described above and stained for CK8 and androgen receptor. Lymph nodes were imaged using a Zeiss AX10 microscope. Metastases were identified and areas were measured using the Axiovision (Zeiss, Release 4.8) measurement tool.
Immunohistochemistry was performed as described above (see “Immunofluorescence”) with the exception that immediately after antigen […] and TBS washes, specimens were incubated in 3% hydrogen peroxide in TBS followed by TBS washes. The following primary antibodies were used: phospho-AKT^S473 (Cell Signaling), phospho-rpS6^S240/244 (Cell Signaling), phospho-4EBP1^T37/46 (Cell Signaling), phospho-histone H3 (Upstate), and cleaved caspase (Cell Signaling). This was followed by TBS washes and incubation with the appropriate biotinylated secondary antibody (Vector Lab) for 30 min at room temperature. An ABC-HRP Kit (Vector Lab) was used to amplify the signal, followed by a brief incubation in hydrogen peroxide. The protein of interest was detected using DAB (Sigma). Specimens were counterstained with haematoxylin (Thermo Scientific), dehydrated with Citrisolv (Fisher), and mounted with Cytoseal XYL (Vector Lab).
Paraffin-embedded prostate specimens were deparaffinized and rehydrated as described above (see “Immunofluorescence”), stained with haematoxylin (Thermo Scientific), and washed with water. This was followed by a brief incubation in differentiation RTU (VWR) and two washes with water followed by two 70% ethanol washes. […]

SMILES: CO[C@H]1C[C@@H]2CC[C@@H](C)[C@@](O)(O2)C(=O)C(=O)N2CCCC[C@H]2C(=O)O[C@H]([C@H](C)C[C@@H]2CC[C@@H](OCCO)[C@H](OC)C2)CC(=O)[C@H](C)/C=C(\C)[C@@H](O)[C@@H](OC)C(=O)[C@H](C)C[C@H](C)/C=C/C=C/C=C/1C [RAD001]
- regression of PIN lesions (28 days): only partial regression
- proliferation (phospho-histone H3) (ATP site inhibitor of mTOR 1 mg/kg daily): limited decrease
